From ChEMBL document CHEMBL1152576, “E-Combretastatin and E-resveratrol structural modifications: antimicrobial and cancer cell growth inhibitory beta-E-nitrostyrenes” (Bioorg Med Chem, 2009)
Converted amounts (≈) assume the structure as drawn. The source made the active and inactive calls. The calls are words filed in the database; no cut-off is given here.

Tests used:
[1] = system: Streptococcus pneumoniae; assay: Antimicrobial activity against Streptococcus pneumoniae ATCC 6303 after 24 hrs by broth microdilution susceptibility assay; format: functional; settings: ATCC 6303, 24 h
[2] = system: Escherichia coli; assay: Antimicrobial activity against Escherichia coli ATCC 25922 by broth microdilution susceptibility assay; format: functional
[3] = system: SF-295; assay: Cytotoxicity against human SF295 cells after 48 hrs by sulforhodamine B assay; format: functional
[4] = system: NCI-H460; assay: Cytotoxicity against human NCI-H460 cells after 48 hrs by sulforhodamine B assay; format: functional; settings: NCI-H460, 48 h
[5] = system: Candida albicans; assay: Antimicrobial activity against Candida albicans ATCC 90028 assessed clear zone in inhibition per disk by CLSI disk diffusion susceptibility assay; format: functional
[6] = system: Stenotrophomonas maltophilia; assay: Antimicrobial activity against Stenotrophomonas maltophilia ATCC 13637 after 24 hrs by broth microdilution susceptibility assay; format: functional; settings: ATCC 13637, 24 h
[7] = system: A498; assay: Cytotoxicity against human A498 cells after 48 hrs by sulforhodamine B assay; format: functional
[8] = system: Neisseria gonorrhoeae; assay: Antimicrobial activity against Neisseria gonorrhoeae ATCC 49226 assessed clear zone of inhibition measured per disk by CLSI disk diffusion susceptibility assay; format: functional
[9] = system: Streptococcus pneumoniae; assay: Antimicrobial activity against Streptococcus pneumoniae ATCC 6303 by broth microdilution susceptibility assay; format: functional
[10] = system: Micrococcus luteus; assay: Antimicrobial activity against Micrococcus luteus Presque Isle 456 assessed clear zone in inhibition per disk by CLSI disk diffusion susceptibility assay; format: functional
[11] = system: Stenotrophomonas maltophilia; assay: Antimicrobial activity against Stenotrophomonas maltophilia ATCC 13637 by broth microdilution susceptibility assay; format: functional
[12] = system: Staphylococcus aureus; assay: Antimicrobial activity against Staphylococcus aureus ATCC 29213 by broth microdilution susceptibility assay; format: functional
[13] = system: Escherichia coli; assay: Antimicrobial activity against Escherichia coli ATCC 25922 after 24 hrs by broth microdilution susceptibility assay; format: functional; settings: ATCC 25922, 24 h
[14] = system: Enterobacter cloacae; assay: Antimicrobial activity against Enterobacter cloacae ATCC 13047 assessed clear zone in inhibition per disk by CLSI disk diffusion susceptibility assay; format: functional
[15] = system: Enterococcus faecalis; assay: Antimicrobial activity against Enterococcus faecalis ATCC 29212 assessed clear zone in inhibition per disk by CLSI disk diffusion susceptibility assay; format: functional
[16] = system: BXPC-3; assay: Cytotoxicity against human BxPC3 cells after 48 hrs by sulforhodamine B assay; format: functional; settings: BXPC-3, 48 h
[17] = system: DU-145; assay: Cytotoxicity against human DU145 cells after 48 hrs by sulforhodamine B assay; format: functional; settings: DU-145, 48 h
[18] = system: KM-20L2; assay: Cytotoxicity against human KM20L2 cells after 48 hrs by sulforhodamine B assay; format: functional; settings: KM-20L2, 48 h
[19] = system: SF-268; assay: Cytotoxicity against human SF268 cells after 48 hrs by sulforhodamine B assay; format: functional
[20] = system: Stenotrophomonas maltophilia; assay: Antimicrobial activity against Stenotrophomonas maltophilia ATCC 13637 assessed clear zone in inhibition per disk by CLSI disk diffusion susceptibility assay; format: functional
[21] = system: Candida albicans; assay: Antifungal activity against Candida albicans ATCC 90028 after 24 hrs by broth microdilution susceptibility assay; format: functional; settings: ATCC 90028, 24 h
[22] = system: Staphylococcus aureus; assay: Antimicrobial activity against Staphylococcus aureus ATCC 29213 after 24 hrs by broth microdilution susceptibility assay; format: functional; settings: ATCC 29213, 24 h
[23] = system: Cryptococcus neoformans; assay: Antimicrobial activity against Cryptococcus neoformans ATCC 90112 assessed clear zone in inhibition per disk by CLSI disk diffusion susceptibility assay; format: functional
[24] = system: Cryptococcus neoformans; assay: Antifungal activity against Cryptococcus neoformans ATCC 90112 after 72 hrs by broth microdilution susceptibility assay; format: functional; settings: ATCC 90112, 72 h
[25] = system: Neisseria gonorrhoeae; assay: Antimicrobial activity against Neisseria gonorrhoeae ATCC 49226 after 24 hrs by broth microdilution susceptibility assay; format: functional; settings: ATCC 49226, 24 h
[26] = system: Enterobacter cloacae; assay: Antimicrobial activity against Enterobacter cloacae ATCC 13047 by broth microdilution susceptibility assay; format: functional
[27] = system: Enterococcus faecalis; assay: Antimicrobial activity against Enterococcus faecalis ATCC 29212 after 24 hrs by broth microdilution susceptibility assay; format: functional; settings: ATCC 29212, 24 h
[28] = system: Enterococcus faecalis; assay: Antimicrobial activity against Enterococcus faecalis ATCC 29212 by broth microdilution susceptibility assay; format: functional
[29] = system: SK-MEL-5; assay: Cytotoxicity against human SK-MEL-5 cells after 48 hrs by sulforhodamine B assay; format: functional
[30] = system: Staphylococcus aureus; assay: Antimicrobial activity against Staphylococcus aureus ATCC 29213 assessed clear zone in inhibition per disk by CLSI disk diffusion susceptibility assay; format: functional
[31] = system: Micrococcus luteus; assay: Antimicrobial activity against Micrococcus luteus Presque Isle 456 after 24 hrs by broth microdilution susceptibility assay; format: functional; settings: Presque Isle 456, 24 h
[32] = system: OVCAR-3; assay: Cytotoxicity against human OVCAR-3 cells after 48 hrs by sulforhodamine B assay; format: functional
[33] = system: Micrococcus luteus; assay: Antimicrobial activity against Micrococcus luteus Presque Isle 456 by broth microdilution susceptibility assay; format: functional
[34] = Inhibition of tubulin polymerization
[35] = system: P388; assay: Cytotoxicity against mouse P388 cells after 48 hrs by sulforhodamine B assay; format: functional; settings: P388, 48 h, read-out: ED50 (the source's name)
[36] = system: MCF7; assay: Cytotoxicity against human MCF7 cells after 48 hrs by sulforhodamine B assay; format: functional; settings: MCF7, 48 h
[37] = system: Neisseria gonorrhoeae; assay: Antimicrobial activity against Neisseria gonorrhoeae ATCC 49226 by broth microdilution susceptibility assay; format: functional
[38] = system: Streptococcus pneumoniae; assay: Antimicrobial activity against Streptococcus pneumoniae ATCC 6303 assessed clear zone in inhibition per disk by CLSI disk diffusion susceptibility assay; format: functional
[39] = system: Cryptococcus neoformans; assay: Antifungal activity against Cryptococcus neoformans ATCC 90112 after 48 hrs by broth microdilution susceptibility assay; format: functional; settings: ATCC 90112, 48 h
[40] = system: Escherichia coli; assay: Antimicrobial activity against Escherichia coli ATCC 25922 assessed clear zone in inhibition per disk by CLSI disk diffusion susceptibility assay; format: functional
[41] = system: Candida albicans; assay: Antifungal activity against Candida albicans ATCC 90028 after 48 hrs by broth microdilution susceptibility assay; format: functional; settings: ATCC 90028, 48 h
[42] = system: Enterobacter cloacae; assay: Antimicrobial activity against Enterobacter cloacae ATCC 13047 after 24 hrs by broth microdilution susceptibility assay; format: functional; settings: ATCC 13047, 24 h

O=[N+]([O-])/C=C/c1ccc2c(c1)OCO2
MBC [1]: 32 µg/mL (≈ 166 µM)
MIC [2]: 64 µg/mL (≈ 331 µM)
GI50 [3]: inactive
GI50 [4]: 2 µg/mL (≈ 10.4 µM)
MIC [5]: 1.56 µg
MBC [6]: > 64 µg/mL
GI50 [7]: inactive
MIC [8]: <0.78 µg
MIC [9]: 16 µg/mL (≈ 82.8 µM)
MIC [10]: 50 µg
MIC [11]: 64 µg/mL (≈ 331 µM)
MIC [12]: 32 µg/mL (≈ 166 µM)
MBC [13]: > 64 µg/mL
MIC [14]: 12.5 µg
MIC [15]: 6.25 µg
GI50 [16]: 1.7 µg/mL (≈ 8.8 µM)
GI50 [17]: 1.8 µg/mL (≈ 9.32 µM)
GI50 [18]: 1.8 µg/mL (≈ 9.32 µM)
GI50 ([19]; SF-268, 48 h): 1.9 µg/mL (≈ 9.84 µM)
MIC [20]: 6.25 µg
MFC [21]: 16 µg/mL (≈ 82.8 µM)
MBC [22]: > 64 µg/mL
MIC [23]: 0.78 µg
MIC [24]: 8 µg/mL (≈ 41.4 µM)
MBC [25]: 2 µg/mL (≈ 10.4 µM)
MIC [26]: > 64 µg/mL
MBC [27]: > 64 µg/mL
MIC [28]: 64 µg/mL (≈ 331 µM)
GI50 [29]: inactive
MIC [30]: 6.25 µg
MBC [31]: > 64 µg/mL
GI50 [32]: inactive
MIC [33]: 64 µg/mL (≈ 331 µM)
IC50 [34]: 5.3 µM
EC50 [35]: 2 µg/mL (≈ 10.4 µM)
GI50 [36]: 0.58 µg/mL (≈ 3 µM)
MIC [37]: 1 µg/mL (≈ 5.18 µM)
MIC [38]: 0.78 µg
MFC [39]: 16 µg/mL (≈ 82.8 µM)
MIC [40]: 6.25 µg
MIC [41]: 8 µg/mL (≈ 41.4 µM)

O=[N+]([O-])/C=C/c1c[nH]c2ccccc12
MBC [1]: > 64 µg/mL
MIC [2]: > 64 µg/mL
GI50 [3]: inactive
GI50 [4]: 1.6 µg/mL (≈ 8.5 µM)
MIC [5]: 12.5 µg
MBC [6]: > 64 µg/mL
GI50 [7]: inactive
MIC [8]: 3.12 µg
MIC [9]: 64 µg/mL (≈ 340 µM)
MIC [10]: 50 µg
MIC [11]: 64 µg/mL (≈ 340 µM)
MIC [12]: 64 µg/mL (≈ 340 µM)
MIC [14]: >100 µg
MIC [15]: >100 µg
GI50 [16]: 1.4 µg/mL (≈ 7.44 µM)
GI50 [17]: 1.3 µg/mL (≈ 6.91 µM)
GI50 [18]: 1.4 µg/mL (≈ 7.44 µM)
GI50 ([19]; SF-268, 48 h): 1.9 µg/mL (≈ 10.1 µM)
MIC [20]: 25 µg
MFC [21]: 64 µg/mL (≈ 340 µM)
MBC [22]: > 64 µg/mL
MIC [23]: 6.25 µg
MIC [24]: 16 µg/mL (≈ 85 µM)
MBC [25]: 8 µg/mL (≈ 42.5 µM)
MIC [26]: > 64 µg/mL
MBC [27]: > 64 µg/mL
MIC [28]: 64 µg/mL (≈ 340 µM)
GI50 [29]: inactive
MIC [30]: >100 µg
MBC [31]: > 64 µg/mL
GI50 [32]: inactive
MIC [33]: 64 µg/mL (≈ 340 µM)
IC50 [34]: 15 µM
EC50 [35]: 3.7 µg/mL (≈ 19.7 µM)
GI50 [36]: 0.4 µg/mL (≈ 2.13 µM)
MIC [37]: 8 µg/mL (≈ 42.5 µM)
MIC [38]: 12.5 µg
MFC [39]: 32 µg/mL (≈ 170 µM)
MIC [40]: 25 µg
MIC [41]: 32 µg/mL (≈ 170 µM)

COc1ccccc1/C=C/[N+](=O)[O-]
MBC [1]: > 64 µg/mL
MIC [2]: 64 µg/mL (≈ 357 µM)
GI50 ([3]; SF-295, 48 h): 1.7 µg/mL (≈ 9.49 µM)
GI50 [4]: 1.7 µg/mL (≈ 9.49 µM)
MIC [5]: 1.56 µg
MBC [6]: 64 µg/mL (≈ 357 µM)
GI50 [7]: inactive
MIC [8]: 0.78 µg
MIC [9]: 64 µg/mL (≈ 357 µM)
MIC [10]: >100 µg
MIC [11]: 32 µg/mL (≈ 179 µM)
MIC [12]: 64 µg/mL (≈ 357 µM)
MBC [13]: 64 µg/mL (≈ 357 µM)
MIC [14]: 25 µg
MIC [15]: 0.78 µg
GI50 [16]: 1.6 µg/mL (≈ 8.93 µM)
GI50 [17]: 1.5 µg/mL (≈ 8.37 µM)
GI50 [18]: 1.5 µg/mL (≈ 8.37 µM)
GI50 [19]: inactive
MIC [20]: 12.5 µg
MFC [21]: 16 µg/mL (≈ 89.3 µM)
MBC [42]: > 64 µg/mL
MBC [22]: > 64 µg/mL
MIC [23]: 0.78 µg
MIC [24]: > 64 µg/mL
MBC [25]: 2 µg/mL (≈ 11.2 µM)
MIC [26]: 64 µg/mL (≈ 357 µM)
MBC [27]: > 64 µg/mL
MIC [28]: 64 µg/mL (≈ 357 µM)
GI50 [29]: inactive
MIC [30]: 6.25 µg
GI50 [32]: inactive
MIC [33]: > 64 µg/mL
IC50 [34]: 7.4 µM
EC50 [35]: 0.51 µg/mL (≈ 2.85 µM)
GI50 [36]: 0.48 µg/mL (≈ 2.68 µM)
MIC [37]: 2 µg/mL (≈ 11.2 µM)
MIC [38]: 25 µg
MIC [40]: 50 µg
MIC [41]: 8 µg/mL (≈ 44.6 µM)
